Measured values published in BigSolDB 2.1.

CCCCc1nc(Cl)c(C(=O)OCOC(=O)OC(C)C)n1Cc1ccc(-c2ccccc2-c2nn[nH]n2)cc1
solubility (mole fraction) (in acetone, 278.15 K): 0.00987 | solubility (mole fraction) (in acetone, 283.15 K): 0.0112 | solubility (mole fraction) (in acetone, 288.15 K): 0.0132 | solubility (mole fraction) (in acetone, 293.15 K): 0.0155 | solubility (mole fraction) (in acetone, 298.15 K): 0.019 | solubility (mole fraction) (in acetone, 303.15 K): 0.0234 | solubility (mole fraction) (in acetone, 308.15 K): 0.0299 | solubility (mole fraction) (in acetone, 313.15 K): 0.0364 | solubility (mole fraction) (in acetonitrile, 278.15 K): 0.00131 | solubility (mole fraction) (in acetonitrile, 283.15 K): 0.00154 | solubility (mole fraction) (in acetonitrile, 288.15 K): 0.00195 | solubility (mole fraction) (in acetonitrile, 293.15 K): 0.00247 | solubility (mole fraction) (in acetonitrile, 298.15 K): 0.00326 | solubility (mole fraction) (in acetonitrile, 303.15 K): 0.00445 | solubility (mole fraction) (in acetonitrile, 308.15 K): 0.00597 | solubility (mole fraction) (in acetonitrile, 313.15 K): 0.00816 | solubility (mole fraction) (in methanol, 278.15 K): 0.00111 | solubility (mole fraction) (in methanol, 283.15 K): 0.00128 | solubility (mole fraction) (in methanol, 288.15 K): 0.00156 | solubility (mole fraction) (in methanol, 293.15 K): 0.00209 | solubility (mole fraction) (in methanol, 298.15 K): 0.00277 | solubility (mole fraction) (in methanol, 303.15 K): 0.00361 | solubility (mole fraction) (in methanol, 308.15 K): 0.00508 | solubility (mole fraction) (in methanol, 313.15 K): 0.00772
